Reference: patent US20100144636A1, “PEPTIDES DERIVED FROM RAS-P21 AND USES THEREFOR” (THE RESEARCH FOUNDATION OF STATE UNIVERSITY OF NEW YORK, priority 2008, published 2010)
Where no end group is shown, it is not given here.

What was measured:
[1] = test system: BMRPA1 normal rat pancreatic acinar cells; test: Growth and viability of untransformed BMRPA1 cells incubated with peptide; format: cell-based
Description: (§1) MIAPaCa-2 cells were grown in Dulbecco's modified Eagle's medium (GIBCO) supplemented with heat inactivated 10% fetal calf serum, 20 mM glutamine, penicillin (100 units/ml), streptomycin (100/ug/ml) and plated on a six-well plate with density no more then 20,000 cells/well in 3 ml culture medium. HT1080 cells were cultured in RPMI 1640 medium supplemented with 10% heat-inactivated fetal calf serum, 100 units/ml of penicillin and 100 ug/ml streptomycin and plated on six-well plates with a density of no more then 6,000 cells/well in 3 ml culture medium. BMRPA1 normal rat pancreatic acinar cells were grown as described previously.
(§2) All cells (approximately 2×10^4) were incubated in their respective media (see above) for 24 h after which the media were replaced with the same media containing one of the peptides at a concentration of 100 μg/ml. Over the subsequent time course of each experiment, the medium was changed every 48 h, but always contained peptide at the same concentration. Cells were observed daily for 1-3 weeks for changes in morphology and growth characteristics. After selected time periods, cells were stained with trypan blue or assayed using the MTT assay as described previously to assess cell counts. These experiments were performed at least three times for each cell line.

[2] = test system: HT-1080 fibrosarcoma cells; test: Growth (cell counts) of HT-1080 cells incubated with peptide; format: cell-based, human; settings: peptide 100 μg/ml, medium changed every 48 h; three-week observation period (FIG. 1)
Description: as §1, §2

[3] = test system: insulin-induced oocyte maturation; test: Insulin-induced oocyte maturation (activated wild-type ras-p21); format: cell-based, Xenopus laevis; settings: oocytes induced to mature with insulin
Description: (§3) The Applicants have synthesized both of the inventive peptides, referred to as PNC-7 and PNC-2, and assayed them for their abilities to block oncogenic ras-p21 induction of maturation of Xenopus laevis oocytes. Injection of oncogenic, but not wild-type ras-p21, into these oocytes induce oocyte maturation, i.e., completion of the second meiotic division, as measured by germinal vesicle membrane breakdown (GVBD). Insulin also induces oocyte maturation in a manner that requires activation of endogenous wild-type ras-p21.

[4] = test system: oncogenic (Val 12-containing) ras-p21-induced oocyte maturation; test: Oncogenic ras-p21-induced oocyte maturation (GVBD); format: cell-based, Xenopus laevis; settings: injected/co-injected with oncogenic ras-p21 into oocytes
Description: as §3

[5] = molecular target: oncogenic ras-p21 with raf (Homo sapiens, UniProt P04049); test: Interaction of oncogenic ras-p21 with raf; format: binding
[6] = test system: caspase (CPP32) in MIA-PaCa-2 cells; test: Clontech caspase (CPP32) activity assay for apoptosis; format: cell-based, human; settings: relative to control background; TNF-alpha 20 ng/ml for 45 min as positive control (FIG. 4A)
Description: To detect if peptide-induced cell death occurred by apoptosis or necrosis, the Clontech caspase (CPP32) activity assay for elevated caspase was performed as described previously. In addition, to detect if significant cell necrosis occurred, the CytoTox96 assay for LDH released into the cell culture medium was used as also described previously. As a positive control for LDH release, the CytoTox96 assay was performed on the media of MIA-PaCa-2 cells that were incubated with 100 ug/ml PNC-28 peptide for 24 h.

[7] = test system: oncogenic ras-p21-JNK interaction; test: Oncogenic ras-p21-JNK interaction; format: binding; settings: dose-response curve coincides with that for inhibition of oocyte maturation

## MPFSTGKRIMLGEKKWKMRRNQFVKVQRG [PNC-29, reference compound]
[1]
  cell growth or viability of untransformed BMRPA1 cells: no effect either on cell growth or viability

## NAVFRLLHEHKGKKAKKWKMRRNQFVKVQRG (CD45-MRP- Control peptide from the CD-45 antigen linked to penetratin) [CD-45-MRP]
[2]
  tumor cell growth / cell count of HT-1080 cells: no effect on tumor cell growth

## TIEDSYRQVVID (PNC-7- ras-p21 residue 35-47)
[3]
  inhibition of insulin-induced oocyte maturation: considerably less inhibitory activity
[4]
  inhibition of oncogenic ras-p21-induced oocyte maturation: block
[5]
  blocking of the interaction of oncogenic ras-p21 with raf: blocks the interaction of oncogenic ras-p21 with raf

## TIEDSYRQVVIDKKWKMRRNQFVKVQRG [PNC-7-MRP]
[1]
  cell growth or viability of untransformed BMRPA1 cells: no effect either on cell growth or viability

## TNF-alpha
[6]
  caspase expression in MIA-PaCa-2 cells: markedly elevated

## YREQIKRVKDSDDVP (PNC-2 -ras-p21 residue 96-110)
[7]
  blocking of the oncogenic ras-p21-JNK interaction: blocks the oncogenic ras-p21-JNK interaction
[3]
  inhibition of insulin-induced oocyte maturation: considerably less inhibitory activity
[4]
  inhibition of oncogenic ras-p21-induced oocyte maturation: block

## YREQIKRVKDSDDVPKKWKMRRNQFVKVQRG [PNC-2-MRP]
[1]
  cell growth or viability of untransformed BMRPA1 cells: no effect either on cell growth or viability
